From paper PMC3593816 (Protein expression and purification, 2013)

Molecular target: T1, Siglec5 (Homo sapiens, UniProt O15389, C36A)
T1 sequence (O15389 19-141 C36A): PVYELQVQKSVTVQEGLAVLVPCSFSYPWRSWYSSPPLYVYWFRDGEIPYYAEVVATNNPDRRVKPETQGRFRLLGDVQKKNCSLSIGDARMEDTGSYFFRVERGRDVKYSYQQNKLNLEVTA
Assay: 2D 1H-15N HSQC NMR titration
Format: binding

Kd | SMILES
> 100 mM | CC(=O)N[C@H]1[C@H]([C@H](O)[C@H](O)CO)OC(O)(C(=O)O)C[C@@H]1O (mixture of isomers) [sialic acid]
31 ± 8 mM | CC(=O)N[C@H]1[C@H]([C@H](O)[C@H](O)CO)O[C@@](OC[C@H]2O[C@@H](O[C@H]3[C@H](O)[C@@H](O)C(O)O[C@@H]3CO)[C@H](O)[C@@H](O)[C@H]2O)(C(=O)O)C[C@@H]1O (some centres unmarked) [6′-sialyllactose]
